US6576641B2, “Fused heterocyclic compounds and their use in the treatment of neurodegenerative diseases” (Neurosearch A/S, priority 1999, dated 2003)

Experiments:
[1] = test system: differentiated PC12 cells; experiment: Survival of differentiated PC12 cells after NGF withdrawal, cell viability by CyQUANT; format: cell-based; conditions: differentiated PC12 cells in serum-free medium, after 4 days; FIG. 1B
Method: (§1) Survival of Differentiated PC12 Cells after NGF Withdrawal
(§2) PC12 cells are considered models for […] neurons for the investigation of neuronal differentiation and apoptosis.
(§3) PC12 cells were seeded in collagen coated 96 well plates at a cell density of 8000/cm^2 in DMEM with 7.5% FCS, 7.5% HS and 2 nM NGF and cultured for 6 days.
(§4) The medium was then changed to DMEM without serum supplemented with the compound of the test compound in the concentrations indicated in FIG. 1. As a positive control, parallel wells receiving serum-free DMEM without addition of vehicle or 3 nM NGF were included.
In another assay cell viability after 4 days was evaluated by using the CyQUANT Cell Proliferation Kit from Molecular Probes. CyQUANT might give a better correlation with the actual cell number of the culture than MTS, which rather reflects the total metabolic activity of the culture, cf. FIG. 1B.

[2] = test system: differentiated PC12 cells; experiment: Survival of differentiated PC12 cells after NGF withdrawal, cell viability by reduction of MTS; format: cell-based
Method: as §1, §2, §3, §4
After 4 days of incubation, cell viability was evaluated by reduction of MTS using the CellTiter 96 AQueous Non-radioactive Cell Proliferation Assay (available from Promega).
Data are expressed as % of the response seen with 3 nM NGF, and corrected for residual MTS reduction activity in the parallel serum-free cultures, cf. FIG. 1A.

CCCCN1CCc2oc(-c3ccc([N+](=O)[O-])cc3)cc2C1.O=C(O)/C=C/C(=O)O [Compound 1, 6-(4-Nitrophenyl)-furano[3,2-c]-N-butyl-1,2,3,4-tetrahydropyridine Fumaric Acid Salt]
maximal rescue (cell survival, CyQUANT) [1]: approximately 50%
rescue of differentiated PC12 cells in serum-free medium ([2]; at nanomolar concentrations, stated for both MTS and CyQUANT experiments): potent dose-dependent rescue
maximal protection (cell viability, MTS) ([2]; differentiated PC12 cells in serum-free medium, 4 days of incubation, % of the response seen with 3 nM NGF, corrected for serum-free cultures, FIG. 1A): approximately 30%
concentration giving maximal protection ([2]; differentiated PC12 cells in serum-free medium, tested 1 nM to 10 μM, stated for both MTS and CyQUANT experiments): 100 nM
